The test has as its target T1, human LPA1 (Homo sapiens, UniProt Q92633).
T1 construct: expressed in transfected cells; host or cells: Chinese hamster ovary (CHO) cells
Description: LPA1 functional antagonist assay (LPA-induced calcium flux in CHO cells overexpressing human LPA1). Format: cell-based. The conditions noted are these: inhibition of calcium flux induced by 10 nM LPA, CHO cells overexpressing human LPA1; read-out: hLPA1 IC50. The protocol: The effectiveness of compounds of the present invention as LPA1 inhibitors can be determined in an LPA1 functional antagonist assay as follows:
Chinese hamster ovary cells overexpressing human LPA1 were plated overnight (15,000 cells/well) in poly-D-lysine coated 384-well microplates (Greiner bio-one, Cat #781946) in DMEM/F12 medium (Gibco, Cat #11039). Following overnight culture, cells were loaded with calcium indicator dye (AAT Bioquest Inc, Cat #34601) for 30 minutes at 37° C. The cells were then equilibrated to room temperature for 30 minutes before the assay. Test compounds solubilized in DMSO were transferred to 384 well non-binding surface plates (Corning, Cat #3575) using the Labcyte Echo acoustic dispense and diluted with assay buffer [IX HBSS with calcium/magnesium (Gibco Cat #14025-092), 20 mM HEPES (Gibco Cat #15630-080) and 0.1% fatty acid free BSA (Sigma Cat #A9205)] to a final concentration of 0.5% DMSO. Diluted compounds were added to the cells by FDSS6000 (Hamamatsu) at final concentrations ranging from 0.08 nM to 5 μM. and were then incubated for 20 min at room temperature at which time LPA (Avanti Polar Lipids Cat #857130C) was added at final concentrations of 10 nM to stimulate the cells. The compound IC50 value was defined as the concentration of test compound which inhibited 50% of the calcium flux induced by LPA alone. IC50 values were determined by fitting data to a 4-parameter logistic equation (GraphPad Prism, San Diego Calif.).
T1 sequence (Q92633 whole entry): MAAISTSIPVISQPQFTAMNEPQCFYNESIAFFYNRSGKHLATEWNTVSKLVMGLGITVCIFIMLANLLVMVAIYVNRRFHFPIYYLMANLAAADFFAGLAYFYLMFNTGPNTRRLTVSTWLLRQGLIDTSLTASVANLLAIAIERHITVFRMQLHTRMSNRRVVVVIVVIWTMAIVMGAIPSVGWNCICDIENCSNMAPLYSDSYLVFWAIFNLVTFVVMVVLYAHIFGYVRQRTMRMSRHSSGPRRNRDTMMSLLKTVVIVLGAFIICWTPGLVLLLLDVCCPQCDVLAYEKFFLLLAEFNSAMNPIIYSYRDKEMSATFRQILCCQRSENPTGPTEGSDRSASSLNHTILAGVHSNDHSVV
As for `CCC(OC)c1nc(NCc2c(-c3ccc(O[C@H]4CCC[C@H](C(=O)O)C4)c(C)n3)nnn2C)no1` (mixture of isomers) [Example 217, (1S,3S)-3-((6-(5-(((5-(1-methoxy-propyl)-1,2,4-oxadiazol-3-yl)amino)methyl)-1-methyl-1H-1,2,3-triazol-4-yl)-2-methylpyridin-3-yl)oxy) cyclo-hexane-1-carboxylic acid], the IC50 worked out at 84 nM. On to `CCCOC(C)c1nc(NCc2c(-c3ccc(O[C@H]4CCC[C@H](C(=O)O)C4)c(C)n3)nnn2C)no1` (mixture of isomers) [Example 218, (1S,3S)-3-((2-methyl-6-(1-methyl-5-(((5-(1-propoxyethyl)-1,2,4-oxadiazol-3-yl)amino)methyl)-1H-1,2,3-triazol-4-yl)pyridin-3-yl)oxy)cyclohexane-1-carboxylic acid], for which the IC50 worked out at 35 nM. Next, `Cc1nc(-c2nnn(C)c2CNc2noc(C3CCCO3)n2)ccc1O[C@H]1CCC[C@H](C(=O)O)C1` (mixture of isomers) [Example 221, (1S,3S)-3-((2-methyl-6-(1-methyl-5-(((5-(tetrahydrofuran-2-yl)-1,2,4-oxadiazol-3-yl)amino)methyl)-1H-1,2,3-triazol-4-yl)pyridin-3-yl)oxy) cyclohexane-1-carboxylic acid]: 221 nM; `CCOC(C)c1nc(NCc2c(-c3ccc(O[C@H]4CCC[C@H](C(=O)O)C4)c(C)n3)nnn2C)no1` (mixture of isomers) [Example 222, (1S,3S)-3-((6-(5-(((5-(1-ethoxyethyl)-1,2,4-oxadiazol-3-yl)amino)methyl)-1-methyl-1H-1,2,3-triazol-4-yl)-2-methylpyridin-3-yl)oxy)cyclohexane-1-carboxylic acid]: 92 nM.

With `COC(C)c1nc(NCc2c(-c3ccc(O[C@H]4CCC[C@H](C(=O)O)C4)c(C)n3)nnn2C)no1` (mixture of isomers) [Example 223, (1S,3S)-3-((6-(5-(((5-(1-methoxy-ethyl)-1,2,4-oxadiazol-3-yl)amino)methyl)-1-methyl-1H-1,2,3-triazol-4-yl)-2-methylpyridin-3-yl)oxy)cyclo-hexane-1-carboxylic acid], the IC50 turned out to be 466 nM.

For the compound `Cc1nc(-c2nnn(C)c2CNc2noc(C(C)OC3CC3)n2)ccc1O[C@H]1CCC[C@H](C(=O)O)C1` (mixture of isomers) [Example 226, (1S,3S)-3-((6-(5-(((5-(1-cyclopro-poxyethyl)-1,2,4-oxadiazol-3-yl)amino)methyl)-1-methyl-1H-1,2,3-triazol-4-yl)-2-methylpyridin-3-yl)oxy)cyclohexane-1-carboxylic acid], the IC50 was found to be 123 nM. With `Cc1nc(-c2nnn(C)c2Cc2noc(C(C)C3CC3)n2)ccc1O[C@H]1CCC[C@H](C(=O)O)C1` (mixture of isomers) [Example 239, (1S,3S)-3-((6-(5-((5-(1-cyclopropyl-ethyl)-1,2,4-oxadiazol-3-yl)methyl)-1-methyl-1H-1,2,3-triazol-4-yl)-2-methylpyridin-3-yl)oxy)cyclohexane-1-carboxylic acid], the IC50 is 28 nM. Regarding `CCC(C)Cc1nc(NCc2c(-c3ccc(O[C@H]4CCC[C@H](C(=O)O)C4)cn3)nnn2C)no1` (mixture of isomers) [Example 290, (1S,3S)-3-((6-(1-methyl-5-(((5-(2-methylbutyl)-1,2,4-oxadiazol-3-yl)amino)methyl)-1H-1,2,3-triazol-4-yl)pyridin-3-yl)oxy)cyclohexane-1-carboxylic acid, racemate], the IC50 was 37.3 nM. Regarding `CCCC(C)c1nc(NCc2c(-c3ccc(O[C@H]4CCC[C@H](C(=O)O)C4)cn3)nnn2C)no1` (mixture of isomers) [Example 291, (1S,3S)-3-((6-(1-methyl-5-(((5-(pentan-2-yl)-1,2,4-oxadiazol-3-yl)amino)methyl)-1H-1,2,3-triazol-4-yl)pyridin-3-yl)oxy)cyclohexane-1-carboxylic acid, racemate], the IC50 turned out to be 59.4 nM.

Regarding `CC[C@@H](OC)c1nc(NCc2c(-c3ccc(O[C@H]4CCC[C@H](C(=O)O)C4)c(C)n3)nnn2C)no1` (single isomer, unassigned) [Example 215], the IC50 stood at 154 nM.
